In patent publication US20170246194A1, “Acetaminophen-Containing Analgesic Formulations With Reduced Hepatotoxicity” (Purdue Pharma L.P., priority 2014, published 2017):

Assays:
male C3HeB/FeJ mice = assay: Toxicity in mice: acetaminophen-induced liver injury, plasma ALT activity; assay type: in vivo; conditions: fasted mice; for protection of the liver against acetaminophen damage (maximal ALT elevation): cimetidine 20% and/or methionine 30% of the acetaminophen dose
Experimental: This example is performed as described in Saito, Hepatology, 51(1):246, 2010, which is incorporated by reference herein.
At selected times after acetaminophen treatment, groups of animals are killed by way of cervical dislocation under anesthesia. Blood is drawn from the vena cava into heparinized syringes and centrifuged. The plasma is used for determination of alanine aminotransferase (ALT) activities. Plasma ALT activities are determined and expressed as international units per liter.
After establishing the model in the pilot phase, five experimental groups are studied. The groups receive vehicles containing the ingredients noted in Table B. If the methionine or cimetidine is ineffective or is fully protective, the doses are adjusted and the experiment repeated until the relative contribution of each relative to the combination is determined.
The outcome is maximal ALT elevation. Data are expressed as the mean±standard error. Comparison between groups is performed analysis of variance, or alternative non-parametric procedures if the data is not normally distributed. P<0.05 is considered significant.

[1] = normally, in man; cited from earlier work
volunteers = conditions: human volunteers, given with acetaminophen 4 grams a day
Source text: All subjects participate in an initial multiple dose study of 1 gram of acetaminophen given four times a day (four grams a day), protected by twice a day transaminase determinations. […] Subjects with no elevation are terminated from the study. Subjects rest for three weeks after the first phase and then return for the second phase.
Subjects dose at 4 grams of acetaminophen a day. They have twice daily blood samples for serum transaminases, and proceed to the next day's dosing only if their most recent transaminase values are no more than 3 times the upper limit of normal.
The outcome variable is maximal transaminase elevations for each subject relative to baseline tested by ANOVA for each formulation. The test article is hepato-protective if there is a significant (P<0.05) difference in outcome for the formulation.
Subjects with transaminase elevations are followed at intervals to ensure that their values return to normal.

Row | SMILES | liver injury (maximal ALT elevation) (male C3HeB/FeJ mice; acetaminophen alone, intraperitoneal single dose) | ingested dose metabolized to the non-toxic sulfate or glucuronide [1] [%] | protection of the liver against acetaminophen damage (maximal ALT elevation) (male C3HeB/FeJ mice) | serious adverse effects (volunteers)
1 | CC(=O)Nc1ccc(O)cc1 [acetaminophen, N-acetyl-p-aminophenol] | causes liver injury | 96 |  | 
2 | CN/C(=N/CCSCc1nc[nH]c1C)NC#N [cimetidine] |  |  | protected against damage | no additional serious adverse effects
3 | CSCC[C@H](N)C(=O)O [methionine] |  |  | protected against damage | no additional serious adverse effects
